The source of these data is patent US20060194819A1, “Activation specific inhibitors of nf-kb and method of treating inflammatory processes in cardio-vascular diseases” (PROCORDE GMBH, priority 2003, published 2006).

The nature of data set [1]: Solubility in PBS. Type of data set: physicochemical.
In data set [2] the target is T1, IKK-complex (Homo sapiens, UniProt O14920+O15111+Q9Y6K9).
T1 construct: IKK-complex was immunoprecipitated with anti-NEMO-antibody; endogenous in cells; host or cells: HeLa
In words: Cellular IKK kinase assay: HeLa cells treated with compound, TNF alpha stimulation, IKK-complex immunoprecipitated with anti-NEMO-antibody, I kappaB peptide phosphorylation by alpha screen. Type of data set: cell-based. The settings on record: HeLa cells, compound 1 h, TNF alpha 20 ng/ml, alpha screen; read-out: IC50 for inhibition of IKK-activity (I kappaB peptide phosphorylation). The protocol: Kinase Assay Protocol: HeLa cells were maintained in Dulbecco's modified Eagle's medium (Invitrogen) supplemented with 10% fetal bovine serum, 2 mM L-glutamine, penicillin (50 units/ml) and streptomycin (50 μg/ml). 24 h before treatment with different compounds HeLa cells were plated at a density of 5×10^6 per well in 100-mm cell culture dishes to 90% confluences.
The cells were incubated with different drugs at the concentration indicated for 1 h, washed twice with PBS and stimulated with 20 ng/ml TNF alpha (Roche). After 7 min the cells were washed twice with ice cold PBS followed by scraping and transferring into a 1.5 ml microcentrifuge tube. After centrifugation by 2000 rpm for 2 min by 4° C. the PBS supernatant was removed and 200 μl Lyse-buffer (10 mM Hepes, pH 7.9, 0.1% NP40, 10 mM, 300 mM Sucrose, 10 mM KCl, 15 mM MgCl2, 1 mM DTT, 0.5 mM PMSF and antipain, aprotinin, leupeptin each 0.75 μg/ml (Sigma) was added to the pellet. The resuspended pellet was incubated on ice for 5 min and centrifuged at 13000 g for 30 s. The supernatant, cytosolic extract, was added to 200 μl TNT-buffer (200 mM NaCl, 20 mM Tris/HCl pH 7.5, 1% Triton X-100). Unspecific binding was blocked by incubation with 3 μg of normal rabbit IgG (Sigma) and 6 mg resuspended and prewashed Protein A Sepharose CI-4B (Pharmacia Biotech) for 30 min by 4° C. followed by immunoprecipitation for 1.5 h at 4° C. with 2 μg of anti-NEMO-antibody (Santa Cruz Biotechnology) and 6 mg resuspented and prewashed Protein A Sepharose CI-4B (Parmacia Biotech). […] 6.6 μl of detection-buffer (20 mM Hepes pH 7.5, 100 mM NaCl, 1% Tween, 0.1 mM BSA, 50 μg/ml Protein A-Acceptor beads, 250 μg/ml Streptavidin-Donor beads (both Perkin-Elmer), 4 nM anti-phospho-IKB antibody (Santa Cruz Biotechnology) was dispensed to each well. After incubation for 1.5 h the plate was measured by alpha screen reader (Perkin Elmer). […]

What is called IC50 is the concentration needed to halve the response being measured.

T1 sequence (O14920 whole entry): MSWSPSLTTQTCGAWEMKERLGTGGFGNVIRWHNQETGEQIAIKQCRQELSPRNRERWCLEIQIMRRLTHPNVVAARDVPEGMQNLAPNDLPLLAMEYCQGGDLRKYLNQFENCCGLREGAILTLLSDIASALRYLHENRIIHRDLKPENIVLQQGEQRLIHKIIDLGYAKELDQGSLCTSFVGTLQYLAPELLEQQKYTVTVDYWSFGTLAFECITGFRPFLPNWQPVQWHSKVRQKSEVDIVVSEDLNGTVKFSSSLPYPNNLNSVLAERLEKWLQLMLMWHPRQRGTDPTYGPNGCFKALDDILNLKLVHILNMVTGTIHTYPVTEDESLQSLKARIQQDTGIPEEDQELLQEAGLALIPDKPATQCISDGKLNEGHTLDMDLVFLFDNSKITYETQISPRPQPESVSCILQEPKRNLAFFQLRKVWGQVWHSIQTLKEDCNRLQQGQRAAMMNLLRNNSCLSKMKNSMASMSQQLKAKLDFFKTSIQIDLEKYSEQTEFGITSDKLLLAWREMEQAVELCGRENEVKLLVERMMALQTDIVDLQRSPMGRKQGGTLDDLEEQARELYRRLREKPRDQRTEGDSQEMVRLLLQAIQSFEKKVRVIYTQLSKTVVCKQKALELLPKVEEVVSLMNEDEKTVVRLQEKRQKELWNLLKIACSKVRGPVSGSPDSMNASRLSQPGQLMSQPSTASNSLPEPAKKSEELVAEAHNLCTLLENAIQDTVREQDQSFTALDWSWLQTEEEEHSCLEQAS
T1 sequence (O15111 whole entry): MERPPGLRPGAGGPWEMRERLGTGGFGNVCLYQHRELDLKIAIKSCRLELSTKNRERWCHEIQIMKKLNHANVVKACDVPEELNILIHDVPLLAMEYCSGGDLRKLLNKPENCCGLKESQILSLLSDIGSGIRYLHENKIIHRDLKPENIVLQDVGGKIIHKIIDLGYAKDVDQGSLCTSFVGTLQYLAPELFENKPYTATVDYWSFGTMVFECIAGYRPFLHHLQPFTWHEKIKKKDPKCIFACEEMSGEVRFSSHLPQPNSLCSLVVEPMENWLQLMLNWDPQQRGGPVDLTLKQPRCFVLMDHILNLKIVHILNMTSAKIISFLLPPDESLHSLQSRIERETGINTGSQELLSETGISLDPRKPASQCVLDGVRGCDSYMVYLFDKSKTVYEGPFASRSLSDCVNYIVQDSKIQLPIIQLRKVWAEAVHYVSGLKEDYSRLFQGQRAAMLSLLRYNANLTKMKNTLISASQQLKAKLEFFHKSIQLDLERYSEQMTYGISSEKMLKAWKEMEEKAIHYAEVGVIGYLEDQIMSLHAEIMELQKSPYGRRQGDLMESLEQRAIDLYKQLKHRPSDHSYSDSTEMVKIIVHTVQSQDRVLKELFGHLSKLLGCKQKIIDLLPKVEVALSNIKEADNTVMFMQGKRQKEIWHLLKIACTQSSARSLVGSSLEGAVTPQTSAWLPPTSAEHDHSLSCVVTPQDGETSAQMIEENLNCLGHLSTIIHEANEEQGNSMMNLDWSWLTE
T1 sequence (Q9Y6K9 whole entry): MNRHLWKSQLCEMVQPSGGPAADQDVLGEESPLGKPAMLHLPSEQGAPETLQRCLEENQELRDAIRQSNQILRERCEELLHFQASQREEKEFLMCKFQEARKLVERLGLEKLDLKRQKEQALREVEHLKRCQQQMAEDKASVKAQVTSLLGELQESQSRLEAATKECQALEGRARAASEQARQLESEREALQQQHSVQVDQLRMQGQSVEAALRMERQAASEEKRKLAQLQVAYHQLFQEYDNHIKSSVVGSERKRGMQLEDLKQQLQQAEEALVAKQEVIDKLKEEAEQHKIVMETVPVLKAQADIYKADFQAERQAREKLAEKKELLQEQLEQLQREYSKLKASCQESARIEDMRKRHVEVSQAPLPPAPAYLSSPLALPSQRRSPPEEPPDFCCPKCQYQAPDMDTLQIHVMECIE

For `CCC(=O)C1=C(C)N=c2s/c(=C/c3cc(C)c(OCc4ccccc4Cl)c(I)c3)c(=O)n2C1c1ccc2c(c1)OCO2` (centres unmarked) [Compound 41], the “solubility in PBS” value in data set [1] is recorded as “only partly soluble”. Further, the concentration for half-maximal inhibition (IC50) in data set [2] lay within 10 to 100 µM.
